The results in this text go back to ChEMBL document CHEMBL1201862, “PubChem BioAssay data set” (2004).

Each structure is given as a SMILES string.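 48-hour exposure; five concentrations; linearly interpolated endpoints. GI50: concentration for 50% inhibition of growth.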 Calls of active or inactive are those of the source. Rule as the data show it: active = GI50 up to about 1.1 µM and inactive = higher.

Common to all, as to assay: NCI tumour cell line growth inhibition, 48 h
Experiment [1] has as its system 786-0.
The test system of experiment [2] is CAKI-1.
Experiment [3] deals with CCRF-CEM.
The test system of experiment [4] is COLO 205.
The subject of experiment [5] is DU-145.
Experiment [6] relates to EKVX.
The test system of experiment [7] is Hs-578T.
Experiment [8] has as its system K562.
Experiment [9] deals with MDA-MB-435.
Experiment [10] relates to MDA-N.
In experiment [11] the test system is NCI-H460.
Experiment [12] deals with RPMI-8226.
Experiment [13] concerns SF-539.
Experiment [14] relates to T47D.
Experiment [15] concerns TK-10.
For experiment [16], the system named is UACC-62.
Experiment [17] deals with NCI/ADR-RES.
Experiment [18] concerns OVCAR-3.
The test system of experiment [19] is UO-31.
For experiment [20], the system named is SNB-75.

Take `Cc1nn(C(=O)Cc2ccccc2)c2c1C(c1ccc([N+](=O)[O-])cc1)SC(=N)N2` (stereo unspecified): the GI50 in experiment [1], in experiment [2], in experiment [3], in experiment [4], in experiment [5] and in experiment [6] was > 100 µM (inactive) in each case. Further, the GI50 in experiment [7], in experiment [8], in [9], in [10], in [11] and in experiment [12] was > 100 µM (inactive) in each case. For the same molecule, the GI50 in [13], in experiment [14], in [15] and in [16] was > 100 µM (inactive) in each case.
In the case of `Cc1cc(N)c2cc(NC(=O)Nc3ccc4nc(C)cc(N)c4c3)ccc2n1`, the GI50 in [1], in [2], in experiment [3], in experiment [4], in experiment [5] and in experiment [6] was > 100 µM (inactive) throughout. Also, the GI50 in experiment [7] is > 100 µM (inactive); in experiment [8], > 100 µM (inactive); in experiment [9], > 100 µM (inactive); in experiment [10] it was > 100 µM (inactive); in [11], 32.4 µM (inactive); in experiment [17], > 100 µM (inactive). In addition, the GI50 in experiment [18], in [12], in experiment [14], in experiment [15], in [16] and in experiment [19] was > 100 µM (inactive) each time.
As for `CCN(CC)C(=S)N/N=C1\C(=O)Nc2ccccc21`, the GI50 in experiment [1] was 0.432 µM (active); in experiment [2], 0.895 µM (active); in experiment [3] it was 0.347 µM (active); in [4], 0.659 µM (active); in experiment [5], > 100 µM (inactive); in experiment [6], 1.36 µM (inactive). Moreover, the GI50 in experiment [7] is 0.771 µM (active); in experiment [8], 0.562 µM (active); in [9], 2.51 µM (inactive); in experiment [10], 2.01 µM (inactive); in [11], 0.406 µM (active); in experiment [17] it was 0.152 µM (active). Also, the GI50 in experiment [18] was 0.192 µM (active); in experiment [12], 0.355 µM (active); in experiment [13] it was 0.468 µM (active); in [20], 1.31 µM (inactive); in experiment [15], 0.348 µM (active); in [16] it was 1.31 µM (inactive).
On to `CCOC(=O)N(C)C1(c2ccccc2)CCN(CCCC(=O)c2ccc(F)cc2)CC1`, for which the GI50 is 33 µM (inactive) in experiment [1]; 2.16 µM (inactive) in [2]; 31.7 µM (inactive) in experiment [3]; 15.4 µM (inactive) in experiment [4]; > 100 µM (inactive) in [5]; > 100 µM (inactive) in [6]. The GI50 in experiment [7] is 49 µM (inactive); in experiment [8], 23.7 µM (inactive); in experiment [9], 23.9 µM (inactive); in [10], 21.7 µM (inactive); in [11] it was 35.5 µM (inactive); in experiment [17] it was 47.8 µM (inactive). For the same molecule, the GI50 in experiment [18] was 44 µM (inactive); in experiment [12], 27.4 µM (inactive); in experiment [13] it was 28.6 µM (inactive); in [14] it was 61.1 µM (inactive); in experiment [15], 45.3 µM (inactive); in experiment [16], 42.1 µM (inactive). Besides, the GI50 in experiment [19] was 0.0148 µM (active).
On to `COC(=O)C(=O)C(C(=O)C(=O)Nc1ccc(Cl)c(Cl)c1)c1nc2ccc(C(=O)c3ccccc3)cc2nc1O` (stereo unspecified), for which the GI50 in experiment [1] was > 100 µM (inactive); in experiment [2], 22.5 µM (inactive); in [3], 46.6 µM (inactive); in experiment [6] it was 44.9 µM (inactive); in experiment [7] it was 22.1 µM (inactive); in experiment [8] it was < 0.01 µM (active). The GI50 was 35.4 µM (inactive) in [9]; 42.9 µM (inactive) in [10]; 33.6 µM (inactive) in [17]; 86.7 µM (inactive) in [18]; 40.2 µM (inactive) in [12]; 62.2 µM (inactive) in experiment [13]. The GI50 in experiment [20] is 28.3 µM (inactive); in experiment [14], 49 µM (inactive); in [15], > 100 µM (inactive); in experiment [16], > 100 µM (inactive); in experiment [19], 26.4 µM (inactive).
On to `c1ccc(CN2CCC3(CC2)SSC2(CCN(Cc4ccccc4)CC2)S3)cc1`, for which the GI50 in experiment [1] is > 100 µM (inactive); in experiment [2] it was 26.9 µM (inactive); in experiment [3], 65.9 µM (inactive); in experiment [4], 17 µM (inactive); in experiment [5] it was > 100 µM (inactive); in experiment [7], 17.7 µM (inactive). In addition, the GI50 in experiment [8] was 71.6 µM (inactive); in experiment [9], 31.3 µM (inactive); in experiment [10] it was 44.7 µM (inactive); in experiment [11] it was 25.6 µM (inactive); in [17], > 100 µM (inactive); in [18] it was 76.4 µM (inactive). Further, the GI50 is 20.1 µM (inactive) in experiment [12]; > 100 µM (inactive) in experiment [13]; > 100 µM (inactive) in experiment [20]; 64.4 µM (inactive) in experiment [15]; 82.8 µM (inactive) in experiment [16]; > 100 µM (inactive) in experiment [19].
Regarding `O=[N+]([O-])C(=C(N1CCOCC1)N1CCOCC1)/C(Cl)=C(\Cl)Br`, the GI50 in experiment [1] is 25.4 µM (inactive); in experiment [3], 2.65 µM (inactive); in experiment [4], 14.8 µM (inactive); in [5] it was 46.6 µM (inactive); in experiment [6], 17.1 µM (inactive); in experiment [7], > 100 µM (inactive). Besides, the GI50 in experiment [8] was 15.2 µM (inactive); in experiment [10], 26.4 µM (inactive); in experiment [11], > 100 µM (inactive); in experiment [17], 22.2 µM (inactive); in experiment [18], 14.5 µM (inactive); in experiment [12], 14.5 µM (inactive). For the same molecule, the GI50 was 24.3 µM (inactive) in [13], 17.5 µM (inactive) in experiment [20], 15.7 µM (inactive) in experiment [14] and 18.4 µM (inactive) in experiment [19].
For `O=C(O)c1nc2ccc(Cl)cc2[nH]c1=O`, the GI50 in experiment [1], in [2], in experiment [3], in experiment [4], in [5] and in experiment [6] was > 100 µM (inactive) in each case. Also, the GI50 in experiment [7], in [8], in experiment [9], in experiment [10], in experiment [11] and in [17] was > 100 µM (inactive) throughout. The GI50 in experiment [18], in [12], in experiment [13], in [14], in [15] and in [16] was > 100 µM (inactive) in each case. The GI50 in experiment [19] was 46.8 µM (inactive).
